Test results published in patent US20260041677A1, “COMPOSITIONS AND METHODS FOR TREATING ADENOID CYSTIC CARCINOMA” (ELEVAR THERAPEUTICS, INC., priority 2022, published 2026).

What was measured:
[1] = tested on: recurrent or metastatic (R/M) adenoid cystic carcinoma (ACC); assay: Phase 2 study of rivoceranib in R/M ACC: response, PFS, TTP per CHOI response criteria by BIRC; format: in vivo, human; details: for Complete Response / DoR 25th percentile / DoR 75th percentile / DoR Median / Partial Response / Progressive Disease / Stable Disease / DCR (disease control rate): BIRC
Text: (§1) Objectives: Primary objectives were to evaluate safety & tolerability, efficacy by objective response rate (ORR), best overall response (BOR), time to response, duration of response, disease control rate, and duration of disease control. Secondary objectives were to evaluate efficacy as measured by overall survival, progression-free survival and event-free survival. The primary efficacy endpoint was the ORR, defined as the proportion of patients who achieved confirmed complete response (CR) or partial response (PR) per Response Evaluation Criteria in Solid Tumors (RECIST) Version 1.1 (V1.1). The secondary efficacy endpoints were duration of response (DoR) assessed by the investigator and a blinded independent review committee (BIRC), progression-free survival (PFS) assessed at 6 months, 12 months, and 2 years by investigator and BIRC, Time to Progression (TTP) assessed by investigator and BIRC, and overall survival (OS) assessed at 1 and 2 years. Exploratory efficacy endpoints include ORR per CHOI response criteria (based on the journal article, Choi et al., Correlation of computed tomography and positron emission tomography in patients with metastatic gastrointestinal stromal tumor treated at a single institution with imatinib mesylate: proposal of new computed tomography response criteria. J Clin Oncol. 2007; 25(13): 1753-1759) by a blinded independent review […] (BIRC) and disease control rate (DCR) per RECIST V1.1 by Investigator and BIRC. Except for CHOI response criteria, all response endpoints were assessed per RECIST V1.1 by Investigator and BIRC.
Endpoint of Response per CHOI response Criteria: CHOI response criteria assesses response based on change in tumor density as well as change in tumor size and have been most often used to assess response to treatment with tyrosine kinase inhibitors such as imatinib in gastrointestinal stromal tumors (GIST) where RECIST criteria underestimate response. Evaluation of response per CHOI response criteria by BIRC was added to the protocol for exploratory analysis because Investigators observed decreases in tumor density on treatment with rivoceranib without changes in tumor lesion diameters. Changes in tumor density had not been reported with other treatments investigated for R/M ACC.
Objective response rate (ORR), duration of response (DOR) and disease control rate (DCR) in the efficacy evaluable population per CHOI response criteria (using the same data set as used for analyses per RECIST V1.1): Assessment of response per CHOI response criteria required a subject have contrast-enhanced CT scan as the imaging modality for assessment of tumor density at baseline and post-baseline time points. Therefore, fewer subjects were efficacy evaluable per CHOI response criteria (N=60) than per RECIST V1.1 criteria (N=73). […] This is >4-fold higher than the ORR of 9.6% per RECIST V1.1 reported by BIRC. […] Median DOR per CHOI response criteria was 14.8 months, which was two-fold higher than that reported per RECIST V1.1-7.2 months reported by BIRC.

[2] = tested on: recurrent or metastatic (R/M) adenoid cystic carcinoma (ACC); assay: Phase 2 study of rivoceranib in R/M ACC: overall survival, intention-to-treat population; format: in vivo, human; details: 700 mg QD start
Text: as §1
The OS was calculated by Overall Survival (months)=12*(Date of death−First dose of rivoceranib+1)/365.25. Median OS were not evaluable. In general, OS rates at 6, 9 and 12 months were similar regardless of prior VEGFR inhibitor treatment or prior systemic anticancer treatment.

[3] = tested on: R/M ACC; details: RECIST V1.1; 500 mg QD; 68 patients, head and neck R/M ACC; cited from earlier work
[4] = CHOI criteria, Total N = 60, 700 mg QD start
[5] = CHOI criteria, VEGFRi-naïve N = 48, 700 mg QD start
[6] = CHOI criteria, VEGFRi-treated N = 12, 700 mg QD start
[7] = CHOI criteria, efficacy evaluable population, 700 mg QD start

N#CC1(c2ccc(NC(=O)c3cccnc3NCc3ccncc3)cc2)CCCC1 [Rivoceranib, N-[4-(1-cyanocyclopentyl)phenyl]-2-{[(pyridin-4-yl)methyl]amino}pyridine-3-carboxamide]
ORR per CHOI criteria relative to ORR per RECIST V1.1 by BIRC ([1]; 51.7% vs 9.6%): > 4 fold | Complete Response [1, 4]: 0% | DoR 25th percentile [1, 4]: 7.2 months | DoR 75th percentile [1, 4]: 20.2 months | DoR Median [1, 4]: 14.8 months | Partial Response [1, 4]: (51.7) % | Progressive Disease [1, 4]: (6.7) % | Stable Disease [1, 4]: (41.7) % | Complete Response [1, 5]: 0% | DCR (disease control rate) [1, 5]: (60.4) % | DoR 25th percentile [1, 5]: 7.2 months | DoR 75th percentile [1, 5]: 20.2 months | DoR Median [1, 5]: 14.8 months | Partial Response [1, 5]: (52.1) % | Progressive Disease [1, 5]: (6.3) % | Stable Disease [1, 5]: (41.7) % | Complete Response [1, 6]: 0% | DCR (disease control rate) [1, 6]: (66.7) % | DoR 25th percentile [1, 6]: 12.2 months | DoR Median [1, 6]: 12.2 months | Partial Response [1, 6]: (50.0) % | Progressive Disease [1, 6]: (8.3) % | Stable Disease [1, 6]: (41.7) % | Median TTP [1, 7]: 14.4 months | estimated PFS rate at 6 months [1, 7]: 80.4% | estimated PFS rate at 9 months [1, 7]: 62.6% | estimated PFS rate at 12 months [1, 7]: 53.8% | estimated TTP rate at 6 months [1, 7]: 82% | estimated TTP rate at 9 months [1, 7]: 67.7% | estimated TTP rate at 12 months [1, 7]: 58.3% | median PFS [1, 7]: 13.8 months | OS rate at 6 months ([2]; ITT population): 94.7% | OS rate at 9 months ([2]; ITT population): 83.5% | OS landmark 12-months, % (95% CI) ([2]; ITT, Total N = 80): 74.5 (62.5-83.1) % | OS landmark 18-months, % (95% CI) ([2]; ITT, Total N = 80): 61.7 (48.3-72.5) % | OS landmark 12-months, % (95% CI) ([2]; ITT, VEGFRi-naïve N = 66): 77.4 (64.2-86.2) % | OS landmark 18-months, % (95% CI) ([2]; ITT, VEGFRi-naïve N = 66): 66.0 (51.1-77.3) % | Median OS ([2]; ITT, VEGFRi-treated N = 14): 17.5 months | OS landmark 12-months, % ([2]; ITT, VEGFRi-treated N = 14): 62.9% | OS landmark 18-months, % ([2]; ITT, VEGFRi-treated N = 14): 45.8% | 6-month PFS [3]: 92.3% | ORR [3]: 46.2% | median DOR [3]: 17.7 months
